Laboratory results as given in US9587005B2 (priority 2010, dated 2017).
Where two headings read alike, the source gives them in different places. *1 amine or outer side, *2 acyl side, *3 side chain or, on linkers, in order; H or OH if unused. Where a SMILES comes first, the peptide text is derived from it. Side-chain parts run from the residue outwards. [ ]: non-standard residue; d: D form. The star is where a group is joined. γGlu = O=C(O)[C@H](CCC(=O)[*:2])N[*:1]; Palmitoyl = CCCCCCCCCCCCCCCC(=O)*; Aib = CC(C)(N)C(=O)O

Tests used:
Format in all cases: cell-based
GLP-1 receptor = target: T1, GLP-1 receptor (Homo sapiens, UniProt P43220); assay: cAMP induction, firefly luciferase reporter assay in HEK293 cells co-transfected with GLP-1 receptor
T1 construct: expressed in transfected cells; host or cells: HEK293
Description: (§1) This example describes an exemplary method of testing the biological activity of the peptides of the present disclosures, which method involves assaying cAMP synthesis.

glucagon receptor = target: T2, glucagon receptor (Homo sapiens, UniProt P47871); assay: cAMP induction, firefly luciferase reporter assay in HEK293 cells co-transfected with glucagon receptor
T2 construct: expressed in transfected cells; host or cells: HEK293
Description: as §1

GIP receptor = target: T3, GIP receptor (Homo sapiens, UniProt P48546); assay: cAMP induction, firefly luciferase reporter assay in HEK293 cells co-transfected with GIP receptor
T3 sequence (P48546 22-466): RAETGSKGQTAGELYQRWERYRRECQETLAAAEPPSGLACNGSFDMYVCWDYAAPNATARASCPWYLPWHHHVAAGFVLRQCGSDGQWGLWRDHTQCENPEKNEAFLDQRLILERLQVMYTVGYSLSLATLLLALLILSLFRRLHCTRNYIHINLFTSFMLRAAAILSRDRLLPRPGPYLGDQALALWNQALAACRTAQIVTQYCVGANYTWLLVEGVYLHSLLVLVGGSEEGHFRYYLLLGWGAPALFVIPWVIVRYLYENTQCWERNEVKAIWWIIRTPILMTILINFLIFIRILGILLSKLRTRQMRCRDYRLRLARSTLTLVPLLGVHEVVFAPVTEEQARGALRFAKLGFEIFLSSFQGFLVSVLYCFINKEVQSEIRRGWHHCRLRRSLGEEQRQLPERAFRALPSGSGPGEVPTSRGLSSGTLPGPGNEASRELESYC

[1] = EC50 (nM) at GLP-1 receptor, Table 16, Example 24
[2] = EC50 (nM) at glucagon receptor, Table 16, Example 24
[3] = EC50 (nM) at GIP receptor, Table 16, Example 24
[4] = EC50 (nM) at GLP-1 Receptor, Table 4, Example 9, composite of multiple different activity assays
[5] = EC50 (nM) at Glucagon Receptor, Table 4, Example 9, composite of multiple different activity assays
[6] = EC50 (nM) at Glucagon Receptor, Table 7, Example 13
[7] = EC50 (nM) at GIP Receptor, Table 4, Example 9, composite of multiple different activity assays
[8] = EC50 (nM) at GIP Receptor, Table 7, Example 13

T2 sequence (P47871 26-477): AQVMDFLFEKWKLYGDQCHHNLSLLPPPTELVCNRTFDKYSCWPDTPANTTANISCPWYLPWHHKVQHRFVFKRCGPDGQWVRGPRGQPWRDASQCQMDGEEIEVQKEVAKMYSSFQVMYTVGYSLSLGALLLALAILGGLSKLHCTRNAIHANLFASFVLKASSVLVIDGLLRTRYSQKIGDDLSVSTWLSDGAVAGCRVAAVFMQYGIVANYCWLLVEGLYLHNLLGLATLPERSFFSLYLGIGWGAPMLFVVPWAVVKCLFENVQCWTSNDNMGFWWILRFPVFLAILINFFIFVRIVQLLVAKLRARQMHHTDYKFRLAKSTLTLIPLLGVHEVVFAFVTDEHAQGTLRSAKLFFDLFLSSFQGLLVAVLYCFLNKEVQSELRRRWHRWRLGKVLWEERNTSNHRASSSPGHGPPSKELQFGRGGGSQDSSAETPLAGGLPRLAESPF
T1 sequence (P43220 24-463): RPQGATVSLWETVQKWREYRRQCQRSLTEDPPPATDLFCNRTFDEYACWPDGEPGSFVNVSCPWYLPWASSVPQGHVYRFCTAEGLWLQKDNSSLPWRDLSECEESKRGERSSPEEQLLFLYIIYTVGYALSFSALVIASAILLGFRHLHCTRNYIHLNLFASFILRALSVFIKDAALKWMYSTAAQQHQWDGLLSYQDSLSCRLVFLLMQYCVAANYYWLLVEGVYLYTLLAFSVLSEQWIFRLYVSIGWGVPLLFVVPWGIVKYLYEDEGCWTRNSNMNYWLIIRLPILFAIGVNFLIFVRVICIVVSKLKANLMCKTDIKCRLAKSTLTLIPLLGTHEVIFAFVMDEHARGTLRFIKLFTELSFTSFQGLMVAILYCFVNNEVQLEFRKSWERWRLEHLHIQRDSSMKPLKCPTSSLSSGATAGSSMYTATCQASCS

| Compound | EC50 (GLP-1 receptor; [1]) [nM] | EC50 (glucagon receptor; [2]) [nM] | EC50 (GIP receptor; [3]) [nM] | EC50 (GLP-1 receptor; [4]) [nM] | EC50 (glucagon receptor; [5]) [nM] | EC50 (glucagon receptor; [6]) [nM] | EC50 (GIP receptor; [7]) [nM] | EC50 (GIP receptor; [8]) [nM] | also measured |
| --- | --- | --- | --- | --- | --- | --- | --- | --- | --- |
| CCCCCCCCCCCCCCCC(=O)N[C@@H](CCC(=O)NCCCCCCCCCCCC(=O)NCCCC[C@H](NC(=O)[C@H](CC(=O)O)NC(=O)[C@H](CO)NC(=O)[C@@H](NC(=O)[C@H](Cc1ccccc1)NC(=O)[C@@H](NC(=O)CNC(=O)[C@H](CCC(N)=O)NC(=O)C(C)(C)NC(=O)[C@@H](N)Cc1c[nH]cn1)[C@@H](C)O)[C@@H](C)O)C(=O)N[C@@H](CO)C(=O)N[C@@H](CCCCN)C(=O)N[C@@H](Cc1ccc(O)cc1)C(=O)N[C@@H](CC(C)C)C(=O)N[C@@H](CC(=O)O)C(=O)N[C@@H](CCC(=O)O)C(=O)N[C@@H](CCCNC(=N)N)C(=O)N[C@@H](C)C(=O)N[C@@H](C)C(=O)N[C@@H](CCC(N)=O)C(=O)N[C@@H](CC(=O)O)C(=O)N[C@@H](Cc1ccccc1)C(=O)N[C@H](C(=O)N[C@@H](CCC(N)=O)C(=O)N[C@@H](Cc1c[nH]c2ccccc12)C(=O)N[C@@H](CC(C)C)C(=O)N[C@@H](CC(C)C)C(=O)N[C@@H](CC(=O)O)C(=O)NCC(=O)NCC(=O)N1CCC[C@H]1C(=O)N[C@@H](CO)C(=O)N[C@@H](CO)C(=O)NCC(=O)N[C@@H](C)C(=O)N1CCC[C@H]1C(=O)N1CCC[C@H]1C(=O)N1CCC[C@H]1C(=O)N[C@@H](CO)C(N)=O)C(C)C)C(=O)O [SEQ ID NO: 162] |  |  |  |  |  |  |  |  | EC50 (GLP-1 receptor; EC50 (cAMP, nmole) GLPR, Table 12, Example 19): 0.003 nM; EC50 (glucagon receptor): 0.008 nM; EC50 (GIP receptor; EC50 (cAMP, nmole) GIPR, Table 12, Example 19): 0.033 nM |
| CCCCCCCCCCCCCCCC(=O)N[C@@H](CCC(=O)NCCCC[C@H](NC(=O)[C@H](CC(=O)O)NC(=O)[C@H](CO)NC(=O)[C@@H](NC(=O)[C@H](Cc1ccccc1)NC(=O)[C@@H](NC(=O)CNC(=O)[C@H](CCC(N)=O)NC(=O)C(C)(C)NC(=O)[C@@H](N)Cc1c[nH]cn1)[C@@H](C)O)[C@@H](C)O)C(=O)N[C@@H](CO)C(=O)N[C@@H](CCCCN)C(=O)N[C@@H](Cc1ccc(O)cc1)C(=O)N[C@@H](CC(C)C)C(=O)N[C@@H](CC(=O)O)C(=O)N[C@@H](CCC(=O)O)C(=O)N[C@@H](CCCNC(=N)N)C(=O)N[C@@H](C)C(=O)N[C@@H](C)C(=O)N[C@@H](CCC(N)=O)C(=O)N[C@@H](CC(=O)O)C(=O)N[C@@H](Cc1ccccc1)C(=O)N[C@H](C(=O)N[C@@H](CCC(N)=O)C(=O)N[C@@H](Cc1c[nH]c2ccccc12)C(=O)N[C@@H](CC(C)C)C(=O)N[C@@H](CC(C)C)C(=O)N[C@@H](CC(=O)O)C(=O)NCC(=O)NCC(=O)N1CCC[C@H]1C(=O)N[C@@H](CO)C(=O)N[C@@H](CO)C(=O)NCC(=O)N[C@@H](C)C(=O)N1CCC[C@H]1C(=O)N1CCC[C@H]1C(=O)N1CCC[C@H]1C(=O)N[C@@H](CO)C(=O)NCC(N)=O)C(C)C)C(=O)O [SEQ ID NO: 205] (H-H[Aib]QGTFTSDK([γGlu-Palmitoyl])SKYLDERAAQDFVQWLLDGGPSSGAPPPSG-NH2) | 0.002 | 0.005 | 0.004 |  |  |  |  |  |  |
| CCCCCCCCCCCCCCCC(=O)N[C@@H](CCC(=O)N[C@@H](CCC(=O)NCCCC[C@H](NC(=O)[C@H](CC(=O)O)NC(=O)[C@H](CO)NC(=O)[C@@H](NC(=O)[C@H](Cc1ccccc1)NC(=O)[C@@H](NC(=O)CNC(=O)[C@H](CCC(N)=O)NC(=O)C(C)(C)NC(=O)[C@@H](N)Cc1c[nH]cn1)[C@@H](C)O)[C@@H](C)O)C(=O)N[C@@H](CO)C(=O)N[C@@H](CCCCN)C(=O)N[C@@H](Cc1ccc(O)cc1)C(=O)N[C@@H](CC(C)C)C(=O)N[C@@H](CC(=O)O)C(=O)N[C@@H](CCC(=O)O)C(=O)N[C@@H](CCCNC(=N)N)C(=O)N[C@@H](C)C(=O)N[C@@H](C)C(=O)N[C@@H](CCC(N)=O)C(=O)N[C@@H](CC(=O)O)C(=O)N[C@@H](Cc1ccccc1)C(=O)N[C@H](C(=O)N[C@@H](CCC(N)=O)C(=O)N[C@@H](Cc1c[nH]c2ccccc12)C(=O)N[C@@H](CC(C)C)C(=O)N[C@@H](CC(C)C)C(=O)N[C@@H](CC(=O)O)C(=O)NCC(=O)NCC(=O)N1CCC[C@H]1C(=O)N[C@@H](CO)C(=O)N[C@@H](CO)C(=O)NCC(=O)N[C@@H](C)C(=O)N1CCC[C@H]1C(=O)N1CCC[C@H]1C(=O)N1CCC[C@H]1C(=O)N[C@@H](CO)C(=O)NCC(N)=O)C(C)C)C(=O)O)C(=O)O [SEQ ID NO: 207] (H-H[Aib]QGTFTSDK([γGlu-γGlu-Palmitoyl])SKYLDERAAQDFVQWLLDGGPSSGAPPPSG-NH2; N-terminus assumed) | 0.002 | 0.005 | 0.015 |  |  |  |  |  |  |
| CCCCCCCCCCCCCCCC(=O)N[C@@H](CCC(=O)NCCCC[C@H](NC(=O)[C@H](CC(=O)O)NC(=O)[C@H](CO)NC(=O)[C@@H](NC(=O)[C@H](Cc1ccccc1)NC(=O)[C@@H](NC(=O)CNC(=O)[C@H](CCC(N)=O)NC(=O)C(C)(C)NC(=O)[C@@H](N)Cc1c[nH]cn1)[C@@H](C)O)[C@@H](C)O)C(=O)N[C@@H](CO)C(=O)N[C@@H](CCCCN)C(=O)N[C@@H](Cc1ccc(O)cc1)C(=O)N[C@@H](CC(C)C)C(=O)N[C@@H](CC(=O)O)C(=O)N[C@@H](CCC(=O)O)C(=O)N[C@@H](CCCNC(=N)N)C(=O)N[C@@H](C)C(=O)N[C@@H](C)C(=O)N[C@@H](CCC(N)=O)C(=O)N[C@@H](CC(=O)O)C(=O)N[C@@H](Cc1ccccc1)C(=O)N[C@H](C(=O)N[C@@H](CCC(N)=O)C(=O)N[C@@H](Cc1c[nH]c2ccccc12)C(=O)N[C@@H](CC(C)C)C(=O)N[C@@H](CC(C)C)C(=O)N[C@@H](CC(=O)O)C(=O)NCC(=O)NCC(=O)N1CCC[C@H]1C(=O)N[C@@H](CO)C(=O)N[C@@H](CO)C(=O)NCC(=O)N[C@@H](C)C(=O)N1CCC[C@H]1C(=O)N1CCC[C@H]1C(=O)N1CCC[C@H]1C(=O)N[C@@H](CO)C(N)=O)C(C)C)C(=O)O [compound 28] |  |  |  | 0.002 | 0.002 | 0.002 | 0.003 | 0.003 | EC50 (GLP-1 receptor; EC50 (nM) at GLP-1 Receptor, Table 7, Example 13): 0.002 nM |
| CCCCCCCCCCCCCCCC(=O)N[C@@H](CCC(=O)NCCCC[C@H](NC(=O)[C@H](CC(=O)O)NC(=O)[C@H](CO)NC(=O)[C@@H](NC(=O)[C@H](Cc1ccccc1)NC(=O)[C@@H](NC(=O)CNC(=O)[C@H](CCC(N)=O)NC(=O)C(C)(C)NC(=O)[C@@H](N)Cc1c[nH]cn1)[C@@H](C)O)[C@@H](C)O)C(=O)N[C@@H](CO)C(=O)N[C@@H](CCCCN)C(=O)N[C@@H](Cc1ccc(O)cc1)C(=O)N[C@@H](CC(C)C)C(=O)N[C@@H](CC(=O)O)C(=O)N[C@@H](CCC(=O)O)C(=O)N[C@@H](CCCNC(=N)N)C(=O)N[C@@H](CCCNC(=N)N)C(=O)N[C@@H](C)C(=O)NC(C)(C)C(=O)N[C@@H](CCC(=O)O)C(=O)N[C@@H](Cc1ccccc1)C(=O)N[C@H](C(=O)N[C@@H](CCC(N)=O)C(=O)N[C@@H](Cc1c[nH]c2ccccc12)C(=O)N[C@@H](CC(C)C)C(=O)N[C@@H](CC(C)C)C(=O)N[C@@H](CC(=O)O)C(=O)N[C@H](C(N)=O)[C@@H](C)O)C(C)C)C(=O)O [compound 31] (H-H[Aib]QGTFTSDK([γGlu-Palmitoyl])SKYLDERRA[Aib]EFVQWLLDT-NH2; N-terminus assumed) |  |  |  | 0.0044 | 0.008 | 0.008 | 0.008 | 0.008 |  |
| CCCCCCCCCCCCCCCC(=O)N[C@@H](CCC(=O)NCCCC[C@H](NC(=O)[C@H](CC(=O)O)NC(=O)[C@H](CO)NC(=O)[C@@H](NC(=O)[C@H](Cc1ccccc1)NC(=O)[C@@H](NC(=O)CNC(=O)[C@H](CCC(N)=O)NC(=O)C(C)(C)NC(=O)[C@@H](N)Cc1c[nH]cn1)[C@@H](C)O)[C@@H](C)O)C(=O)N[C@@H](CO)C(=O)N[C@@H](CCCCN)C(=O)N[C@@H](Cc1ccc(O)cc1)C(=O)N[C@@H](CC(C)C)C(=O)N[C@@H](CC(=O)O)C(=O)N[C@@H](CCC(=O)O)C(=O)N[C@@H](CCCNC(=N)N)C(=O)N[C@@H](CCCNC(=N)N)C(=O)N[C@@H](C)C(=O)NC(C)(C)C(=O)N[C@@H](CCC(=O)O)C(=O)N[C@@H](Cc1ccccc1)C(=O)N[C@H](C(=O)N[C@@H](CCC(N)=O)C(=O)N[C@@H](Cc1c[nH]c2ccccc12)C(=O)N[C@@H](CC(C)C)C(=O)N[C@@H](CC(C)C)C(=O)N[C@@H](CC(=O)O)C(=O)NCC(=O)NCC(=O)N1CCC[C@H]1C(=O)N[C@@H](CO)C(=O)N[C@@H](CO)C(=O)NCC(=O)N[C@@H](C)C(=O)N1CCC[C@H]1C(=O)N1CCC[C@H]1C(=O)N1CCC[C@H]1C(=O)N[C@@H](CO)C(N)=O)C(C)C)C(=O)O [compound 37] (H-H[Aib]QGTFTSDK([γGlu-Palmitoyl])SKYLDERRA[Aib]EFVQWLLDGGPSSGAPPPS-NH2; N-terminus assumed) |  |  |  | 0.006 | 0.004 |  | 0.002 |  |  |
